These results are taken from ChEMBL document CHEMBL5303573, “Mapping human microbiome drug metabolism by gut bacteria and their genes” (Nature, 2019).

The nature of the first data set: The drug is tested on Collinsella intestinalis strain: DSM13280 for biotransformation. The drug concentrations were measured before and after a 12-h incubation by liquid-chromatography-coupled mass spectrometry (LC–MS). As to conditions: 2 µM.
Consider `CC(=O)OCC(CCn1cnc2cnc(N)nc21)COC(C)=O` [FAMCICLOVIR], for which the “Bacterial Biotransformation” value is on record as “Compound NOT metabolized”.
Still for that read-out and setting: the same measure for `COc1ccc2c(c1)c(CC(=O)O)c(C)n2C(=O)c1ccc(Cl)cc1` [INDOMETHACIN]: “Compound NOT metabolized”; for `CN1[C@@H]2CC[C@H]1C[C@@H](OC(=O)C(CO)c1ccccc1)C2` (stereo partly drawn) [ATROPINE]: “Compound NOT metabolized”.

The conditions of the next data set: bacteroides stercoris, 12 h, 2 µM.
Description: The drug is tested on Bacteroides stercoris strain: ATCC43183 for biotransformation. The drug concentrations were measured before and after a 12-h incubation by liquid-chromatography-coupled mass spectrometry (LC–MS)
Consider `CC(=O)OCC(CCn1cnc2cnc(N)nc21)COC(C)=O` [FAMCICLOVIR], for which the “Bacterial Biotransformation” value is reported as “Compound metabolized”.
For `COc1ccc2c(c1)c(CC(=O)O)c(C)n2C(=O)c1ccc(Cl)cc1` [INDOMETHACIN], the “Bacterial Biotransformation” value was “Compound metabolized”.
Take `CN1[C@@H]2CC[C@H]1C[C@@H](OC(=O)C(CO)c1ccccc1)C2` (stereo partly drawn) [ATROPINE]: the “Bacterial Biotransformation” value is recorded as “Compound NOT metabolized”.

A further data set in a line: The drug is tested on Bacteroides coprophilus strain: DSM18228 for biotransformation. The drug concentrations were measured before and after a 12-h incubation by liquid-chromatography-coupled mass spectrometry (LC–MS). As to conditions: 2 µM.
For `CC(=O)OCC(CCn1cnc2cnc(N)nc21)COC(C)=O` [FAMCICLOVIR], the “Bacterial Biotransformation” value was “Compound metabolized”.
Consider `COc1ccc2c(c1)c(CC(=O)O)c(C)n2C(=O)c1ccc(Cl)cc1` [INDOMETHACIN], for which the “Bacterial Biotransformation” value is listed as “Compound metabolized”.
Still for that read-out and setting: the value for `CN1[C@@H]2CC[C@H]1C[C@@H](OC(=O)C(CO)c1ccccc1)C2` (stereo partly drawn) [ATROPINE] was “Compound NOT metabolized”.

The nature of another data set: The drug is tested on Blautia luti strain: DSM14534 for biotransformation. The drug concentrations were measured before and after a 12-h incubation by liquid-chromatography-coupled mass spectrometry (LC–MS). Type of data set: ADME. The arrangement: dose 2 uM, timepoint 0 vs 12 hours. As to conditions: 2 µM.
As to `CC(=O)OCC(CCn1cnc2cnc(N)nc21)COC(C)=O` [FAMCICLOVIR], the “Bacterial Biotransformation” value is “Compound NOT metabolized”.
In the case of `COc1ccc2c(c1)c(CC(=O)O)c(C)n2C(=O)c1ccc(Cl)cc1` [INDOMETHACIN], the “Bacterial Biotransformation” value is given as “Compound NOT metabolized”.
Same read-out and setting: the same measure for `CN1[C@@H]2CC[C@H]1C[C@@H](OC(=O)C(CO)c1ccccc1)C2` (stereo partly drawn) [ATROPINE]: “Compound NOT metabolized”.

The nature of another data set: The drug is tested on Enterobacter cancerogenus strain: ATCC35316 for biotransformation. The drug concentrations were measured before and after a 12-h incubation by liquid-chromatography-coupled mass spectrometry (LC–MS). As to conditions: 2 µM.
As for `CC(=O)OCC(CCn1cnc2cnc(N)nc21)COC(C)=O` [FAMCICLOVIR], the “Bacterial Biotransformation” value was “Compound NOT metabolized”.
The same measure, in the same setting: the value for `COc1ccc2c(c1)c(CC(=O)O)c(C)n2C(=O)c1ccc(Cl)cc1` [INDOMETHACIN] was “Compound NOT metabolized”.

A further data set is described as follows: The drug is tested on Ruminococcus torques strain: ATCC27756 for biotransformation. The drug concentrations were measured before and after a 12-h incubation by liquid-chromatography-coupled mass spectrometry (LC–MS). It is filed as ADME. On the set-up: dose 2 uM, timepoint 0 vs 12 hours. As to conditions: 2 µM.
As to `CC(=O)OCC(CCn1cnc2cnc(N)nc21)COC(C)=O` [FAMCICLOVIR], the “Bacterial Biotransformation” value is given as “Compound NOT metabolized”.
On the same count and under the same terms, the value for `COc1ccc2c(c1)c(CC(=O)O)c(C)n2C(=O)c1ccc(Cl)cc1` [INDOMETHACIN] was “Compound NOT metabolized”; that for `CN1[C@@H]2CC[C@H]1C[C@@H](OC(=O)C(CO)c1ccccc1)C2` (stereo partly drawn) [ATROPINE] was “Compound NOT metabolized”.

The nature of the next data set: The drug is tested on Parabacteroides merdae strain: ATCC43184 for biotransformation. The drug concentrations were measured before and after a 12-h incubation by liquid-chromatography-coupled mass spectrometry (LC–MS). As to conditions: 2 µM.
Take `CC(=O)OCC(CCn1cnc2cnc(N)nc21)COC(C)=O` [FAMCICLOVIR]: the “Bacterial Biotransformation” value was “Compound metabolized”.
For the compound `COc1ccc2c(c1)c(CC(=O)O)c(C)n2C(=O)c1ccc(Cl)cc1` [INDOMETHACIN], the “Bacterial Biotransformation” value was “Compound metabolized”.

A short description of the next data set: The drug is tested on Eubacterium rectale strain: ATCC33656 for biotransformation. The drug concentrations were measured before and after a 12-h incubation by liquid-chromatography-coupled mass spectrometry (LC–MS). As to conditions: agathobacter rectalis, 2 µM.
Turning to `CC(=O)OCC(CCn1cnc2cnc(N)nc21)COC(C)=O` [FAMCICLOVIR], the “Bacterial Biotransformation” value is reported as “Compound NOT metabolized”.
Turning to `COc1ccc2c(c1)c(CC(=O)O)c(C)n2C(=O)c1ccc(Cl)cc1` [INDOMETHACIN], the “Bacterial Biotransformation” value is “Compound NOT metabolized”.
Same read-out and setting: the same measure for `CN1[C@@H]2CC[C@H]1C[C@@H](OC(=O)C(CO)c1ccccc1)C2` (stereo partly drawn) [ATROPINE]: “Compound NOT metabolized”.

The next data set can be described thus: The drug is tested on Bacteroides ovatus strain: ATCC8483 for biotransformation. The drug concentrations were measured before and after a 12-h incubation by liquid-chromatography-coupled mass spectrometry (LC–MS). As to conditions: 2 µM.
Consider `CC(=O)OCC(CCn1cnc2cnc(N)nc21)COC(C)=O` [FAMCICLOVIR], for which the “Bacterial Biotransformation” value is recorded as “Compound metabolized”.
`COc1ccc2c(c1)c(CC(=O)O)c(C)n2C(=O)c1ccc(Cl)cc1` [INDOMETHACIN]: the “Bacterial Biotransformation” value was “Compound metabolized”.

A further data set in a line: The drug is tested on Bacteroides fragilis strain: HMW610 for biotransformation. The drug concentrations were measured before and after a 12-h incubation by liquid-chromatography-coupled mass spectrometry (LC–MS). As to conditions: 2 µM.
Take `CC(=O)OCC(CCn1cnc2cnc(N)nc21)COC(C)=O` [FAMCICLOVIR]: the “Bacterial Biotransformation” value is “Compound metabolized”.
The same measure, in the same setting: the value for `COc1ccc2c(c1)c(CC(=O)O)c(C)n2C(=O)c1ccc(Cl)cc1` [INDOMETHACIN] was “Compound NOT metabolized”.
For `CN1[C@@H]2CC[C@H]1C[C@@H](OC(=O)C(CO)c1ccccc1)C2` (stereo partly drawn) [ATROPINE], the “Bacterial Biotransformation” value is listed as “Compound NOT metabolized”.

The conditions of another data set: enterocloster bolteae, 12 h, 2 µM.
Description: The drug is tested on Clostridium bolteae strain: ATCCBAA-613 for biotransformation. The drug concentrations were measured before and after a 12-h incubation by liquid-chromatography-coupled mass spectrometry (LC–MS)
`CC(=O)OCC(CCn1cnc2cnc(N)nc21)COC(C)=O` [FAMCICLOVIR]: the “Bacterial Biotransformation” value is given as “Compound NOT metabolized”.
Take `COc1ccc2c(c1)c(CC(=O)O)c(C)n2C(=O)c1ccc(Cl)cc1` [INDOMETHACIN]: the “Bacterial Biotransformation” value is given as “Compound metabolized”.

Another data set is described as follows: The drug is tested on Bacteroides pectinophilus strain: ATCC43243 for biotransformation. The drug concentrations were measured before and after a 12-h incubation by liquid-chromatography-coupled mass spectrometry (LC–MS). As to conditions: 2 µM.
On to `CC(=O)OCC(CCn1cnc2cnc(N)nc21)COC(C)=O` [FAMCICLOVIR], for which the “Bacterial Biotransformation” value was “Compound NOT metabolized”.
The same measure, in the same setting: the value for `COc1ccc2c(c1)c(CC(=O)O)c(C)n2C(=O)c1ccc(Cl)cc1` [INDOMETHACIN] was “Compound metabolized”; that for `CN1[C@@H]2CC[C@H]1C[C@@H](OC(=O)C(CO)c1ccccc1)C2` (stereo partly drawn) [ATROPINE] was “Compound NOT metabolized”.

A short description of the next data set: The drug is tested on Dorea formicigenerans strain: ATCC27755 for biotransformation. The drug concentrations were measured before and after a 12-h incubation by liquid-chromatography-coupled mass spectrometry (LC–MS). As to conditions: 2 µM.
Consider `CC(=O)OCC(CCn1cnc2cnc(N)nc21)COC(C)=O` [FAMCICLOVIR], for which the “Bacterial Biotransformation” value is “Compound NOT metabolized”.
The same measure, in the same setting: the same measure for `COc1ccc2c(c1)c(CC(=O)O)c(C)n2C(=O)c1ccc(Cl)cc1` [INDOMETHACIN]: “Compound NOT metabolized”; for `CN1[C@@H]2CC[C@H]1C[C@@H](OC(=O)C(CO)c1ccccc1)C2` (stereo partly drawn) [ATROPINE]: “Compound NOT metabolized”.

A short description of another data set: The drug is tested on Coprococcus comes strain: ATCC27758 for biotransformation. The drug concentrations were measured before and after a 12-h incubation by liquid-chromatography-coupled mass spectrometry (LC–MS). Type of data set: ADME. On the set-up: dose 2 uM, timepoint 0 vs 12 hours. As to conditions: 2 µM.
As to `CC(=O)OCC(CCn1cnc2cnc(N)nc21)COC(C)=O` [FAMCICLOVIR], the “Bacterial Biotransformation” value was “Compound NOT metabolized”.
On the same count and under the same terms, the value for `COc1ccc2c(c1)c(CC(=O)O)c(C)n2C(=O)c1ccc(Cl)cc1` [INDOMETHACIN] was “Compound NOT metabolized”; that for `CN1[C@@H]2CC[C@H]1C[C@@H](OC(=O)C(CO)c1ccccc1)C2` (stereo partly drawn) [ATROPINE] was “Compound NOT metabolized”.

A further data set is described as follows: The drug is tested on Bacteroides fragilis strain: ATCC43859 for biotransformation. The drug concentrations were measured before and after a 12-h incubation by liquid-chromatography-coupled mass spectrometry (LC–MS). As to conditions: 2 µM.
On to `CC(=O)OCC(CCn1cnc2cnc(N)nc21)COC(C)=O` [FAMCICLOVIR], for which the “Bacterial Biotransformation” value is reported as “Compound metabolized”.
With `COc1ccc2c(c1)c(CC(=O)O)c(C)n2C(=O)c1ccc(Cl)cc1` [INDOMETHACIN], the “Bacterial Biotransformation” value is reported as “Compound metabolized”.

A further data set in a line: The drug is tested on Subdoligranulum variabile strain: DSM15176 for biotransformation. The drug concentrations were measured before and after a 12-h incubation by liquid-chromatography-coupled mass spectrometry (LC–MS). As to conditions: 2 µM.
Turning to `CN1[C@@H]2CC[C@H]1C[C@@H](OC(=O)C(CO)c1ccccc1)C2` (stereo partly drawn) [ATROPINE], the “Bacterial Biotransformation” value was “Compound NOT metabolized”.

The next data set in a line: The drug is tested on Edwardsiella tarda strain: ATCC23685 for biotransformation. The drug concentrations were measured before and after a 12-h incubation by liquid-chromatography-coupled mass spectrometry (LC–MS). As to conditions: 2 µM.
For the compound `CC(=O)OCC(CCn1cnc2cnc(N)nc21)COC(C)=O` [FAMCICLOVIR], the “Bacterial Biotransformation” value was “Compound NOT metabolized”.
Turning to `COc1ccc2c(c1)c(CC(=O)O)c(C)n2C(=O)c1ccc(Cl)cc1` [INDOMETHACIN], the “Bacterial Biotransformation” value is “Compound NOT metabolized”.

The nature of a further data set: The drug is tested on Alistipes indistinctus strain: DSM22520 for biotransformation. The drug concentrations were measured before and after a 12-h incubation by liquid-chromatography-coupled mass spectrometry (LC–MS). As to conditions: 2 µM.
For `CC(=O)OCC(CCn1cnc2cnc(N)nc21)COC(C)=O` [FAMCICLOVIR], the “Bacterial Biotransformation” value is “Compound metabolized”.
With `COc1ccc2c(c1)c(CC(=O)O)c(C)n2C(=O)c1ccc(Cl)cc1` [INDOMETHACIN], the “Bacterial Biotransformation” value is recorded as “Compound metabolized”.
Regarding `CN1[C@@H]2CC[C@H]1C[C@@H](OC(=O)C(CO)c1ccccc1)C2` (stereo partly drawn) [ATROPINE], the “Bacterial Biotransformation” value is reported as “Compound NOT metabolized”.

A short description of the next data set: The drug is tested on Clostridium symbiosum strain: ATCC14940 for biotransformation. The drug concentrations were measured before and after a 12-h incubation by liquid-chromatography-coupled mass spectrometry (LC–MS). As to conditions: 2 µM.
For the compound `CC(=O)OCC(CCn1cnc2cnc(N)nc21)COC(C)=O` [FAMCICLOVIR], the “Bacterial Biotransformation” value was “Compound NOT metabolized”.
Still for that read-out and setting: the same measure for `COc1ccc2c(c1)c(CC(=O)O)c(C)n2C(=O)c1ccc(Cl)cc1` [INDOMETHACIN]: “Compound metabolized”.
